Source: ChEMBL document CHEMBL1158745, “Guttiferone I, a new prenylated benzophenone from Garcinia humilis as a liver X receptor ligand” (J Nat Prod, 2005)

How the values were obtained:
[1] = molecular target: Liver X receptor (LXR alpha AND LXR beta) (Homo sapiens) (UniProt Q13133+P55055); assay: Selectivity ratio of IC50 for human LXRbeta to IC50 for human LXRalpha; type: protein assay
[2] = molecular target: T1, Oxysterols receptor LXR-beta (Homo sapiens, UniProt P55055); assay: Displacement of [3H2]F3-methylAA from human LXRbeta expressed in Escherichia coli BL21 cells by scintillation proximity assay
T1 sequence (P55055 whole entry): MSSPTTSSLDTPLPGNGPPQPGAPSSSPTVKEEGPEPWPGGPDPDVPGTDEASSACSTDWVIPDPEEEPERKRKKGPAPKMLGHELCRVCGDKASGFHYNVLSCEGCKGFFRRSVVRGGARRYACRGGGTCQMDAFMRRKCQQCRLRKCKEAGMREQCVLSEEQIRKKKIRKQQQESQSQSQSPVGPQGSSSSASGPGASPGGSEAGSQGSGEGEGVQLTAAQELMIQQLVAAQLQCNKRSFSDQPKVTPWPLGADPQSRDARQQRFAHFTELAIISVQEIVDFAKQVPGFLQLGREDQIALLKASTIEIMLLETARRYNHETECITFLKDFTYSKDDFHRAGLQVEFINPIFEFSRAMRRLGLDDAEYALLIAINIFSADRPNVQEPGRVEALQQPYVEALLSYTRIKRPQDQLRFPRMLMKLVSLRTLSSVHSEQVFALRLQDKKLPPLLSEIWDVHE

[3] = molecular target: T2, Oxysterols receptor LXR-alpha (Homo sapiens, UniProt Q13133); assay: Displacement of [3H2]F3-methylAA from human LXRalpha expressed in Escherichia coli BL21 cells by scintillation proximity assay
T2 sequence (Q13133 whole entry): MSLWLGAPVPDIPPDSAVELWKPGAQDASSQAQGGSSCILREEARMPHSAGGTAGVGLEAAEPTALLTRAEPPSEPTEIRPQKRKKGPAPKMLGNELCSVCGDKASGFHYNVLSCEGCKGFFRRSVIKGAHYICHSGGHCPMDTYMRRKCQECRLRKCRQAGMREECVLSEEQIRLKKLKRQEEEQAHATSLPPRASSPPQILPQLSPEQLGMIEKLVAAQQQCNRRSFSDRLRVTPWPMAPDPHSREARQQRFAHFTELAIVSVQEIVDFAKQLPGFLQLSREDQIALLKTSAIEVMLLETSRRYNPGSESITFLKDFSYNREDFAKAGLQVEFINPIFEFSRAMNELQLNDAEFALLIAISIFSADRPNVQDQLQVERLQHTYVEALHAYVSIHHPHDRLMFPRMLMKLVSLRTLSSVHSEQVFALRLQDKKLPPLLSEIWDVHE

- Ratio IC50 [1]: 5
- IC50 [2]: > 15 µM
- IC50 [3]: 3.4 µM
SMILES: CC(C)=CCC/C(C)=C/C[C@H]1C[C@]2(CC=C(C)C)C(=O)[C@@](CC=C(C)C)(C(=O)C(C(=O)c3ccc(O)c(O)c3)=C2O)[C@]1(C)CCC=C(C)C [GUTTIFERONE I]
